Measured values: patent publication US7078434B1, “Use of Ginkgo extract” (Societe de Conseils de Recherches et d'Applications …, priority 1999, dated 2006)
Entries after “also recorded” stand apart in the source; their conditions may differ.

What was measured:
[1] = test system: peripheral-type benzodiazepine receptor (PBR); test: PBR ligand binding capacity of treated MDA-231 cells ([3H]PK 11195 saturation binding, Scatchard analysis); assay type: cell-based, human; settings: % of control values
From the text: (§1) Cell Culture and Treatments. […] Radioligand Binding Assays. […] RNA (Northern) Analysis. […] Nucleic Acid Arrays. […] BrdU Cell Proliferation Assays. […] Analysis of oxidative stress. […] Biological Evaluation In Vivo. […] Immunocytochemistry of MDA-231 tumors. […] Statistical Analysis. […] (FIG. 5).

PBR mRNA = test: RNA (Northern) blot analysis of PBR mRNA in MDA-231 cells; assay type: cell-based, human; settings: 48 hours, 20 or 200 μg/ml EGB 761® or 2 or 20 μg/ml GKB
From the text: as §1

MCF-7 cells = test: BrdU cell proliferation assay, MCF-7; assay type: cell-based, human; settings: 48 hours, 20 or 200 μg/ml EGB 761® or 2 or 20 μg/ml GKB; compared with MDA-231
From the text: as §1

[2] = test system: MDA-231 cell free radical production; test: Analysis of oxidative stress (2,7-DCF fluorescent probe) in MDA-231 cells; assay type: cell-based, human
From the text: as §1

PBR = test: Immunocytochemistry of MDA-231 tumors with anti-PBR antiserum; assay type: in vivo, human; settings: 50 mg/kg EGB 761® per os or 1 mg/kg GKB ip
Protocol: Formalin embedded sections of MDA-231 xenografts were immunostained with an anti-PBR antiserum at 1:500 dilution as described in the Materials and Methods section. MDA-231 tumors were obtained from animals treated with vehicle (A–D), 50 mg/kg EGB 761® per os (E, G), or 1 mg/kg GKB ip (F, H). […] Arrowheads indicate nuclei. Magnification is ×75 for A, B, C, E, F, G, and H and ×150 for […].
as §1

MDA-231 cells [3] = test: Additional cytotoxicity assays; assay type: cell-based; settings: human
From the text: It is of interest to note that even in the presence of high concentrations of either EGB 761® or GKB, PBR levels and rates of cell proliferation could not be reduced below 30% of normal values. […] It should be also noted that even at the highest concentrations used, neither EGB 761® nor GKB were toxic for the cells, because cell proliferation recovered upon removal of the compounds.

MDA-231 cells [4] = test: BrdU cell proliferation assay, MDA-231
Protocol: 4 h prior to the end of incubation, bromodeoxyuridine (BrdU) was added to each well. Incorporation of BrdU was measured at 450 nm (reference=700 nm). Data points represent the mean±S.D. of four independent experiments carried out in quadruplicate.
4 h prior to the end of incubation, bromodeoxyuridine (BrdU) was added to each well. Incorporation of BrdU was measured at 450 nm (reference=700 nm). Data points represent the mean±S.D. of two independent experiments carried out in quadruplicate.
MDA-231 cells grown in 96-well plates were washed with PBS and cultured in media supplemented with 10% FBS in the presence or absence of either 2 μg/ml or 20 μg/ml GKB for 48 hours. 4 h prior to the end of incubation, bromodeoxyuridine (BrdU) was added to each well. Incorporation of BrdU was measured at 450 nm (reference=700 nm). Data points represent the mean±S.D. of two independent experiments carried out in quadruplicate.
Cell lines were cultured on polystyrene culture dishes (Corning) and grown in Dulbecco's modified Eagle medium (DMEM) supplemented with 10% fetal bovine serum (FBS). […] BrdU Cell Proliferation Assays. MDA-231 cells were plated on 96-well plates (Corning, Corning, N.J.) at a concentration of approximately 10,000 cells/well (24 h incubation) or approximately 5,000 cells/well (48 h incubation) in DMEM supplemented with 0.1% FBS. […] Differences in cell proliferation were analyzed by measuring the amount of 5-bromo-2′deoxyuridine (BrdU) incorporation determined by the BrdU ELISA (Boehringer Mannheim, Indianapolis, Ind.). Incorporation of BrdU was measured at 450 nm (reference at 690 nm).

MDA-231 xenografts = test: MDA-231 human breast cancer xenograft model in nude mice
Protocol: After the end of the treatment the animals were kept for 30 more days and then the animals were sacrificed on day 60. Data shown are means±S.E.M. (n=10).
Biological Evaluation In Vivo. […] Twice weekly tumor sizes and body weights were recorded for all animals for the 30 days of treatment as well for 30 days after the end of the treatment. At that time the animals were sacrificed and the tumors were removed and processed for immunohistochemistry. Animal care was in accordance with institutional guidelines. […] Statistical Analysis.

## C[C@@H]1C(=O)O[C@H]2[C@H](O)C34[C@H]5C[C@@H](C(C)(C)C)C36C(O)C(=O)O[C@H]6O[C@@]4(C(=O)O5)[C@@]12O (some centres unmarked) [GKB, ginkgolide B]
[1]
  decrease of PBR levels (PBR ligand binding capacity, Bmax): 66%
PBR mRNA
  PBR mRNA levels: reduced
MCF-7 cells
  MCF-7 cell proliferation (BrdU incorporation): altered to a lesser degree
[2]
  effect on free radical / reactive oxygen species production: absence of any significant decrease
PBR
  nuclear PBR expression in cells found in the middle of the tumor: reduced
PBR; cytosolic immunostaining could be seen
  nuclear PBR expression in the cells at the edge of the tumors: eliminated
MDA-231 cells [3]
  cell death: neither EGB 761® nor GKB induced any significant cell death
MDA-231 cells [4]; 10% FBS, EGB 761® up to 96 h, GKB 2 or 20 μg/ml 48 hours
  MDA-231 cell proliferation (BrdU incorporation): significantly altered; also recorded: inhibited
MDA-231 cells [4]; highest concentrations used
  toxicity for the cells (recovery of proliferation upon removal): cytostatic and not cytotoxic
MDA-231 xenografts; 1 mg/kg ip once a day for 30 days, measured a month after the end of the treatment, p=0.043
  decrease in tumor size: 32%
MDA-231 xenografts; 30 days treatment, 50 mg/kg EGB 761® or 1 mg/kg GKB, data not shown
  animal body weight: did not affect
